Results reported in patent US7727993B2, “Administering adenosine A2A receptor antagonist to reduce or suppress side effects of parkinson's disease therapy” (Kyowa Hakko Kirin Co., Ltd., priority 2002, dated 2010).
“Also recorded” adds a separate entry of the source.

How the values were obtained:
MPTP cynomologus monkeys = assay: Chronic L-DOPA alone or with KW-6002 in drug-naive MPTP parkinsonian monkeys (Example 4); format: in vivo; conditions: L-DOPA alone group versus L-DOPA plus KW-6002 group; week 3 and 4; FIG. 8
Protocol: ANIMALS: 8 (eight) female drug-naïve cynomologus monkeys weighing between 3 and 5 kg were used. They were rendered parkinsonian by subcutaneous infusion of MPTP (0.5 mg daily) until development of an obvious parkinsonian Syndrome (akinesia, hunched posture and tremor associated with a disability score on our scale of 6 or more). The cumulative dose necessary was variable: from 3.5 to 23.5 mg. The animals were allowed to recover during at least one month except an animal who had to be treated earlier because of marked akinesia. They were scored at least once daily. The disability score remained stable throughout that period. […] The drug was administered orally with a special capsule handler. The animals in the KW-6002 group also received this compound (90 mg/kg) by the oral route. The animals were observed daily (from Monday to Friday) in their cages through a one-way screen and video recordings were made of significant events (abnormal behavior—dyskinesias). They were scored on disability scale and eventually dyskinesia rating scale, before and during the effect. The treatment with L-DOPA was continued for one month.

[1] = test system: chronically L-DOPA-treated 6-hydroxydopamine lesion rats; assay: Abnormal involuntary movements (AIMs) scoring, L-DOPA induced dyskinesia (Example 3); format: in vivo, rat
Protocol: 6-hydroxydopamine (8 μg) was injected into the left medial forebrain bundle in a rat. One week after the lesion, the rats were then tested for contralateral turning by injecting apomorphine (0.1 mg/kg s.c.). Only those animals showing robust contralateral turning were used in subsequent experiments.
During the chronic treatment of L-DOPA, recording of severity scale of AIMs were carried out. In addition, an amplitude-based scale for each limb and axial AIMs was scored during a microdialysis study. Amplitude scores of limb or axial AIMs (each ranging from 0 to 4) was rated based on both the magnitude of paw/limb translocation and of the visible involvement of distal versus proximal muscle groups or on the lateral deviation (or torsion) of an animal's neck and trunk from the longitudinal axis of its body, respectively.

[2] = test system: 6-hydroxydopamine lesion rats; assay: In vivo microdialysis of GABA and glutamate in substantia nigra pars reticulata (Example 3); design: species or system rat
Protocol: GABA and glutamate concentrations in an output nucleus of basal ganglia, substantia nigra pars reticulata (SNr), are measured in the 6-hydroxydopamine lesion rats and the chronically L-DOPA-treated rats after 6-hydroxydopamine lesion. Effect of adenosine A2A receptor selective antagonists on GABA and glutamate levels in SNr and dyskinesias was examined. 6-hydroxydopamine (8 μg) was injected into the left medial forebrain bundle in a rat. One week after the lesion, the rats were then tested for contralateral turning by injecting apomorphine (0.1 mg/kg s.c.). Only those animals showing robust contralateral turning were used in subsequent experiments. […] Rats were placed in each test chamber and the microdialysis probe inserted into SNr was attached to a fluid swivel (TCS2-23, Eicom) that allowed free movement (also sustained rotational behavior). Probes were continuously perfused with a modified Ringer's solution (1.2 mmol/L CaCl2, 2.7 mmol/L KCl, 148 mmol/L NaCl, and 0.85 mmol/L MgCl2; pH 7, artificial cerebrospinal fluid solution) at a rate of 2 μL/min via a microinjection pump (CMA/100, Carnegie […] AB). After stabilization of basal level of release for 3-4 h, 4 samples (60 μL each) during 2 h of perfusion were collected using a fraction collector (CMA/140, Carnegie […]). […] The samples were immediately assayed or frozen and stored in a deep freeze (-80° C.) before assays. GABA and glutamate were analyzed using reverse phase high-performance liquid chromatograph with fluorescence detection after pre-column derivatization of the amino acids with orthophthaldialdehyde reagent. Lindroth and Mopper (1979).

[3] = test system: MPTP-treated common marmosets; assay: L-DOPA induced dyskinesia in MPTP-treated marmosets primed with L-DOPA (Example 5); format: in vivo; conditions: L-DOPA 2.5 mg/kg oral
Protocol: METHODS: MPTP (Sigma-Aldrich, St. Louis, Mo., USA) was dissolved in physiological saline and administered at a dose of 2.0 mg/kg s.c. daily for 5 days. Then, MPTP 2 mg/kg were further administered approximately 3 weeks.
The dyskinesia of the animals was scored using the rating scale described in Table 4. […] The score was calculated as the L-DOPA pre value. On the next day the animals received vehicle for the vehicle control value. […] Animals were assessed for dyskinesia on days 1, 3, 5, 7, 14, 21 and 28 according to the rating scale.
Abnormal movement such as, orofacial movements, myoclonus and complex stereotypic behaviors (e.g., elaborate checking, obsessive grooming), are exclude from dyskinesia rating.
Remarks According to Dyskinesia. Dystonia (arm, leg and trunk): abnormal sustained posture (ex. leg elevation). Stereotypic reaching (arm) Athetosis (arm and leg): writhing twisting movements. Chorea (arm and leg): abnormal rapid (dance like) movements of limbs. Akathisia: motor restlessness. Dyskinesia score is become higher according to severity of dyskinesia. The maximal score is four points.

[4] = L-DOPA treatment 2 weeks after 6-hydroxydopamine lesion
[5] = L-DOPA treatment 3 weeks after 6-hydroxydopamine lesion

N[C@@H](Cc1ccc(O)c(O)c1)C(=O)O [L-DOPA]
level of dyskinesia (MPTP cynomologus monkeys): reached a higher level | average maximum AIM scores ([1]; 2 to 3 weeks chronic L-DOPA, from 10 min to 3 hrs after L-DOPA administration): 9 | AIMs (sum of the amplitude score of limb and axial AIMs) ([1]; chronically L-DOPA-treated rats, FIG. 4): marked AIMs | nigral GABA level ([2]; 6-hydroxydopamine lesion rats, change from pre-value, KW-6002 1 mg/kg p.o., FIG. 2A, 3A): facilitation; also recorded: significant increases | nigral glutamate level ([2]; 6-hydroxydopamine lesion rats, change from pre-value, KW-6002 1 mg/kg p.o., FIG. 2B, 3B): facilitation; also recorded: significant increases | basal level of nigral GABA ([2]; L-DOPA treatment 1 week (20 mg/kg orally twice a day) after 6-hydroxydopamine lesion): 19.3 ± 2.3 nmol/L | basal level of nigral glutamate ([2]; L-DOPA treatment 1 week after 6-hydroxydopamine lesion): 147.5 ± 38.1 nmol/L | basal level of nigral GABA [2, 4]: 20.9 ± 6.8 nmol/L | basal level of nigral glutamate [2, 4]: 112.0 ± 47.1 nmol/L | basal level of nigral GABA [2, 5]: 23.6 ± 4.5 nmol/L | basal level of nigral glutamate [2, 5]: 425.4 ± 99.6 nmol/L | nigral GABA levels after administration ([2]; chronically L-DOPA-treated 6-hydroxydopamine lesion rats, FIG. 5A): without effect | nigral glutamate levels after administration ([2]; chronically L-DOPA-treated 6-hydroxydopamine lesion rats, FIG. 5B): increased | basal nigral glutamate concentration during chronic L-DOPA (in words) ([2]; constant until 2 weeks): drastically increase in 3 weeks | basal nigral GABA levels during chronic L-DOPA (in words) ([2]; throughout 1 to 3 weeks): maintained unchanged | dyskinesias induced by L-DOPA [3]: mild dyskinesias
